Experimental data published in PMC9916762, “Impact of Hydrophobic Chains in Five-Coordinate Glucoconjugate Pt(II) Anticancer Agents” (International Journal of Molecular Sciences, 2023).

How the values were obtained:
[1] = test system: human epidermoid carcinoma cells (A431); assay: MTT cell viability assay, A431; type: cell-based; conditions: for IC50: 48 h incubation, MTT; for SI (selectivity index): ratio IC50 HaCaT / IC50 A431
Text: (§1) The immortalized human keratinocytes (HaCaT) were from Innoprot.

[2] = Octanol/water partition coefficient, shake-flask method; type: physicochemical; conditions: n-octanol/water, UV-vis
Protocol: The partition coefficients in octanol/water (log Po/w) were measured using the shake-flask method, by calculating the equilibrium concentrations through UV spectra (Table 1).
Partition coefficients for the platinum complexes were determined in triplicate in an n-octanol/water system, with different ratios (1:1, 1:2, 2:1). Each complex was dissolved in n-octanol at the concentrations 16.7, 12.5, or 10 μM and subsequently, an appropriate volume of water was added. The mixtures were shaken mechanically for 1 h to ensure the distribution between the two solvent phases. The samples were then centrifuged (13,000 rpm, 10 min). Afterwards, the platinum concentration was determined in the octanol phases by UV–vis spectrophotometry, after collecting a calibration line for each complex. Results are expressed as the logarithm of the partition coefficient of octanol/water (log Po/w), which is the logarithm of the concentration of platinum in the n-octanol divided by its concentration in the aqueous layer.

[3] = test system: murine fibroblast BALB/c-3T3 transformed with the SV40 virus (SVT2); assay: MTT cell viability assay, SVT2; type: cell-based; conditions: for IC50: 48 h incubation, MTT; for SI (selectivity index): ratio IC50 BALB-c/3T3 / IC50 SVT2
Text: as §1

[4] = test system: immortalized murine fibroblasts (BALB/c-3T3); conditions: read-out: IC50 BALB-c/3T3; 48 h incubation, MTT
Protocol: To evaluate their biological activity, the effects of the four complexes on cell viability were evaluated in eukaryotic cell models. For this purpose, experiments were performed on two cancer cell lines, i.e., human epidermoid carcinoma cells (A431) and murine fibroblast BALB/c-3T3 transformed with the SV40 virus (SVT2), and on two non-cancer cell lines, i.e., immortalized human keratinocytes (HaCaT) and immortalized murine fibroblasts (BALB/c-3T3). Cells were incubated with increasing concentrations of 1,Me-Me, 1,Oct-Me, 1,Me-Oct, and 1,Oct-Oct (from 0.1 to 50 μM). After 48 h of incubation, cytotoxicity was determined by MTT assay and cell survival was expressed as the percentage of viable cells in the presence of each complex compared with that of the untreated cells (Figure S19).
The immortalized human keratinocytes (HaCaT) were from Innoprot. Human The A431 epidermoid carcinoma, murine BALB/c-3T3, and SVT2 fibroblasts were from ATCC. Cells were cultured in Dulbecco’s modified Eagle’s medium (DMEM) (Sigma-Aldrich, St. Louis, MO, USA), supplemented with 10% foetal bovine serum (HyClone), 2 mM L-glutamine, and antibiotics, all from Sigma-Aldrich, under a 5% CO2-humidified atmosphere at 37 °C. To test the effects of the complexes on cell viability, cells were seeded at a density of 2.5 × 10^3 cells per well in 96-well plates. After 24 h, cells were incubated with increasing concentrations (from 0.1 to 50 μM) of the four complexes. After 48 h, cell viability was assessed by the MTT assay, as previously reported in [43]. Cell viability was expressed as the percentage of viable cells in the presence of the Pt complexes compared to the controls, represented by untreated cells and cells supplemented with identical volumes of DMSO. Each sample was tested in three independent analyses, each carried out in triplicate.

[5] = test system: immortalized human keratinocytes (HaCaT); assay: MTT cell viability assay, HaCaT; type: cell-based; conditions: 48 h incubation
Text: as §1

A431 cells [6] = assay: Western blot of pro-caspases 9 and 3, A431; type: cell-based, human; conditions: A431, 2.3 μM, 48 h
Protocol: (§2) In particular, SVT2 and A431 were incubated for 48 h with 1-Me,Me and 1-Oct,Me, using the IC50 value concentrations. At the end of incubation, uptake and cell death mechanisms were evaluated. […] Finally, apoptosis was investigated by Western blot analyses using specific antibodies against pro-caspases 9 and 3.
The SVT2 were seeded on six-well plates at a density of 2.5 × 10^5 cells/well, whereas A431 was seeded at a density of 3 × 10^5 cells/well. After 24 h, cells were treated with 9.8 μM of 1-Me,Me or 2.3 μM 1-Oct,Me. After 48 h of incubation, Western blot analyses were performed by using pro-caspase 9 (Cell Signaling Technology, Danvers, MA, USA) and pro-caspase 3 (Abcam, Cambridge, MA, USA) antibodies, as reported by Del Giudice et al. Protein intensity levels were normalized using β-actin (Sigma-Aldrich, St. Louis, MO, USA). The chemiluminescence detection system was purchased from Bio-Rad (Hercules, CA, USA).

A431 cells [7] = assay: Cellular Pt uptake by ICP-MS, A431; type: cell-based, human; conditions: A431, 2.3 μM (IC50), 48 h, mean ± S.E.
Protocol: as §2
To study the uptake of the complexes, SVT2 and A431 were incubated for 48 h in the presence of 1-Me,Me and 1-Oct,Me, respectively, at their IC50 concentrations. At the end of incubation, Pt determination was performed by inductively coupled plasma mass spectrometry (ICP-MS, Aurora M90; Bruker, Ettlingen/Leipzig, Germany) in the “Normal Sensitivity” mode. Calibration curves for the quantification of Pt ranged from 0.1 to 100 μg/L and were constructed daily by the analysis of the standard solutions prepared immediately before analysis. All standards used for analysis were prepared in HNO3 solution (2%, v/v). The internal standards were ^89Y and ^115In in both the calibration curve and sample analyses. The linearity was acceptable with an R^2 value greater than 0.9996. The treatment of the cells involved a wet digestion: after centrifugation, cell samples were wet digested with 1 mL of ultrapure HNO3 (67–69%, v/v). The mixture was gently boiled over a water bath (90 °C) for 3 h until a clear solution was obtained. […]

Substance | IC50 [1] [µM] | SI (selectivity index) [1] | Log Po/w [2] | IC50 [3] [µM] | SI (selectivity index) [3] | IC50 [4] [µM] | IC50 [5] [µM] | pro-caspases 9 and 3 levels (A431 cells [6]) | Pt uptake (A431 cells [7]) [Pt ng/10^6 cells]
Platinum(1+), (2,9-dimethyl-1,10-phenanthroline- N1,N10)(η2-ethene)methyl[1,3-dihydro-1-methyl-3-octyl-4-[1-[2,3,4,6-tetrakis-O-(acetyl)-β-D-glucopyranosyl]-1H-1,2,3-triazol-4-yl]-2H-imidazol-2-ylidene], 1,1,1-trifluoromethanesulfonate [1-Me,Oct] | 7.3 ± 0.4 | 1.1 | 0.74 | 7.6 ± 1.1 | 1.09 | 8.3 ± 0.4 | 8 ± 0.1 |  | 
Platinum(1+), (2,9-dimethyl-1,10-phenanthroline- N1,N10)(η2-ethene)octyl[1,3-dihydro-1,3-dimethyl-4-[1-[2,3,4,6-tetrakis-O-(acetyl)-β-D-glucopyranosyl]-1H-1,2,3-triazol-4-yl]-2H-imidazol-2-ylidene], 1,1,1-trifluoromethanesulfonate [1-Oct,Me] | 2.3 ± 0.1 | 2.78 | 1.14 | 8.6 ± 0.6 | 0.83 | 7.1 ± 0.1 | 6.4 ± 1 | significant decrease in pro-caspases 9 and 3 levels | 14.3 ± 1.3
Platinum(1+), (2,9-dimethyl-1,10-phenanthroline- N1,N10)(η2-ethene)octyl[1,3-dihydro-1-methyl-3-octyl-4-[1-[2,3,4,6-tetrakis-O-(acetyl)-β-D-glucopyranosyl]-1H-1,2,3-triazol-4-yl]-2H-imidazol-2-ylidene], 1,1,1-trifluoromethanesulfonate [1-Oct,Oct] | 5 ± 0.6 | 1.28 | 0.80 | 4.5 ± 1.3 | 1.62 | 7.3 ± 0.7 | 6.4 ± 0.8 |  | 
